Consider one molecule from patent US20250170157A1, “METHODS AND COMPOSITIONS FOR THE TREATMENT OF HEPATIC ENCEPHALOPATHY” (LEXICON PHARMACEUTICALS, INC., priority 2023, published 2025).

Data set [1] concerns mice with STZ-induced diabetes. The data set is described as follows: Effect of LX2761 on glycemic control and cecal pH in mice with STZ-induced diabetes. In kind it is in vivo. Particulars: adult male mice with well-established diabetes, single daily doses 1.5 or 3 mg/kg by oral gavage. The method, then: FIGS. 1A-1F present data showing the effect of LX2761 on glycemic control in mice with STZ-induced diabetes. […] Glucose excursions among groups were compared as glucose AUC0-120 minutes values. […] On day 49, the final study day, samples were obtained to measure FIG. 1C fasting blood glucose; FIG. 1D plasma tGLP-1; and FIG. 1E cecal glucose, reported as the total amount of glucose recovered.
This study evaluated the effect of orally administered LX2761 on glycemic control in preclinical models.
Mice and Rats. All studies were performed at Lexicon Pharmaceuticals, Inc., in strict accordance with the recommendations in the Guide for the Care and Use of Laboratory Animals of the National institutes of Health. The protocols for all studies were approved by the Lexicon Institutional Animal Care and Use Committee (OLAW Assurance Number A4152-01; AAALAC International Accreditation Number 001025). General methods for mouse and rat care have been described elsewhere. […] For all in vivo studies, mice and rats were fed HGD because glucose must be a major source of dietary calories if the effects of SGLT1 inhibition on glucose homeostasis are to be evaluated. […]
Glucose-Containing Meal Challenge. […] Vehicle or LX2761 was administered by oral gavage at 8:00 AM once daily for 4 consecutive days; body weight and food consumption were measured daily. […]

Data set [2] relates to subjects with type 2 diabetes (T2DM). Put plainly: Phase 1 multiple ascending dose clinical study: safety and tolerability. Type of data set: in vivo, human. Here is the method: (§1) A phase 1 multiple ascending dose (MAD) clinical study of LX2761 in otherwise healthy subjects with type 2 diabetes (T2DM) was conducted, following an earlier, single ascending dose study of the compound's safety and tolerability.
(§2) This study evaluated the safety and tolerability of orally administered LX2761 given qd (i.e., once daily) or bid (i.e., twice daily) for eight days, over a range of ascending multiple dose levels in subjects with T2DM. As secondary objectives, the study evaluated the PD and PK of LX2761. Of the 51 subjects enrolled in the study, 27 (52.9%) were male and 24 (47.1%) were female. Subject ages ranged from 41 to 65 years, with BMIs ranging from 20.1 to 39.8 kg/m^2.
(§3) Subjects taking LX2761 were grouped into five cohorts: Cohort A=LX2761 dosed 0.4 mg qd for 4 days followed by LX2761 dosed 0.6 mg qd for 4 days; Cohort A2=LX2761 dosed 0.2 mg bid for 8 days; Cohort B=LX2761 dosed 0.6 mg qd for 4 days followed by LX2761 dosed 0.8 mg qd for 4 days; Cohort C=LX2761 dosed 0.6 mg qd for 4 days followed by LX2761 dosed 1.0 mg qd for 4 days; Cohort C1=LX2761 dosed 0.4 mg bid for 8 days.
(§4) Reporting of TEAEs of diarrhea was not based on subject self-reporting. Given the mechanism of action of LX2761, osmotic diarrhea was expected to occur in all subjects receiving LX2761 based on either stool form or daily frequency. […] The study stopping rules defined gradation of diarrhea as follows: diarrhea of moderate intensity was defined as an increase of 4 to 5 stools/day over the normal pre-study count with moderate cramping that limits usual daily activity or may require simple therapeutic intervention; diarrhea of severe intensity was defined as an increase of 6 to 8 stools/day over the normal pre-study count with severe cramping or incontinence that prohibits usual daily activities or requires systemic drug therapy or other therapeutic intervention.

The target in a further data set is T1, SGLT1 transporter (Homo sapiens, UniProt P13866).
T1 construct: from tissue; host or cells: intestine of human subjects with T2DM (in vivo clinical study)
T1 sequence (P13866 1-664): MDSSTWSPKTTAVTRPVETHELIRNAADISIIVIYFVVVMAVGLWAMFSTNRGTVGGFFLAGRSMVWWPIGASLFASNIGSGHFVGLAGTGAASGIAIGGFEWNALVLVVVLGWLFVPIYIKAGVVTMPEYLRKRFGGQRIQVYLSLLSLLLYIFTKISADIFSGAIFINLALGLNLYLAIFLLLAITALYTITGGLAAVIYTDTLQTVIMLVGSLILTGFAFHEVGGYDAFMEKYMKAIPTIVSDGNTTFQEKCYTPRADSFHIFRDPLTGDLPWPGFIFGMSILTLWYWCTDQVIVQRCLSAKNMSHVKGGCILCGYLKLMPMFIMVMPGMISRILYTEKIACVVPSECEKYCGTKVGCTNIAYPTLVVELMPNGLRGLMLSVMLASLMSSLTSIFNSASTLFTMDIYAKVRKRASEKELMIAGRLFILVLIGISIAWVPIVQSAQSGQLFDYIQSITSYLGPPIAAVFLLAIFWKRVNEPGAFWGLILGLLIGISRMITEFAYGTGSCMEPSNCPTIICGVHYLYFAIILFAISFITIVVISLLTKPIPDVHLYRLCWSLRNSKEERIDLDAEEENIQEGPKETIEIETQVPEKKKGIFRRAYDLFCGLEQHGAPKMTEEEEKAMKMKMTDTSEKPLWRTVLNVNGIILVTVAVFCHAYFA
The data set is described as follows: Phase 1 multiple ascending dose clinical study: pharmacodynamics. In kind it is in vivo. Here is the method: A phase 1 multiple ascending dose (MAD) clinical study of LX2761 in otherwise healthy subjects with type 2 diabetes (T2DM) was conducted, following an earlier, single ascending dose study of the compound's safety and tolerability. This study evaluated the safety and tolerability of orally administered LX2761 given qd (i.e., once daily) or bid (i.e., twice daily) for eight days, over a range of ascending multiple dose levels in subjects with T2DM. As secondary objectives, the study evaluated the PD and PK of LX2761. […] Subjects taking LX2761 were grouped into five cohorts: Cohort A=LX2761 dosed 0.4 mg qd for 4 days followed by LX2761 dosed 0.6 mg qd for 4 days; Cohort A2=LX2761 dosed 0.2 mg bid for 8 days; Cohort B=LX2761 dosed 0.6 mg qd for 4 days followed by LX2761 dosed 0.8 mg qd for 4 days; Cohort C=LX2761 dosed 0.6 mg qd for 4 days followed by LX2761 dosed 1.0 mg qd for 4 days; Cohort C1=LX2761 dosed 0.4 mg bid for 8 days.

Data set [3] can be described thus: Phase 1 multiple ascending dose clinical study: pharmacokinetics. In kind it is in vivo, human. Here is the method:
as §1, §2, §3

The subject of data set [4] is subjects with type 2 diabetes (T2DM). The data set is described as follows: Phase 1 multiple ascending dose clinical study: bowel movement frequency and Bristol Stool Form (BSF) Scale. Type of data set: in vivo, human. The method, then: FIG. 2 provides a table with baseline Bristol Stool Form (BSF) Scale data for subjects taking placebo or LX2761 in a multiple ascending dose study.
as §1, §2, §3, §4

The conditions of data set [5]: rodents and humans; cited from earlier work.
[6] abbreviates: T2DM subjects, oral qd or bid for eight days.

For the molecule `CS[C@H]1O[C@@H](c2ccc(C)c(Cc3ccc(CCCC(=O)NC(C)(C)C(=O)NCCN(C)C)cc3)c2)[C@H](O)[C@@H](O)[C@@H]1O` [LX2761, N-(1-((2-(dimethylamino)ethyl)-amino)-2-methyl-1-oxopropan-2-yl)-4-(4-(2-methyl-5-((2S,3R,4R,5S,6R)-3,4,5-trihydroxy-6-(methylthio)tetrahydro-2H-pyran-2-yl)benzyl)phenyl)butanamide], the glycemic control entry in data set [1] (FIG. 1) is “improved glycemic control”. Further, in data set [1] (FIG. 1F), the “cecal pH” value is listed as “reduced cecal pH”. Moreover, in data set [2] (setting [6]), the “changes in clinical laboratory evaluations, vital signs, physical examination findings, or ECG parameters” value was “No clinically significant changes”. For the same molecule, the “intensity of reported TEAEs” value in data set [2] (all reported TEAEs) was “mild or moderate”. In addition, the “severe cramping or other adverse effects associated with existing HE agents such as lactulose” value in data set [2] (human clinical trial, low doses) is reported as “generally not attended by severe cramping or other adverse effects”. The “severe TEAEs, SAEs, deaths, or discontinuations due to TEAEs” value in data set [2] (human, in vivo) is given as “No severe TEAEs, SAEs (serious adverse events), deaths, or discontinuations due to TEAEs occurred”. The “most frequently reported TEAEs” value in data set [2] (mainly nausea, vomiting, and abdominal pain) is given as “gastrointestinal (GI) events”. Moreover, the “number of TEAEs assessed as moderate in intensity” value in data set [2] (of 25 TEAEs, reported by 6 subjects treated with LX2761) is listed as 9 TEAEs. For the same molecule, on SGLT1 transporter (setting [6]), the “peptide YY (PYY) after dosing” value is given as “increases” and the “total glucagon-like peptide 1 (GLP-1) after dosing” value is given as “increases”. For the same molecule, the “least squares (LS) mean UGE0-24 versus Baseline” value on SGLT1 transporter (all LX2761 cohorts, at some time points) is “decreased from Baseline”. In addition, on SGLT1 transporter (any LX2761 cohort), the “difference from placebo in change from Baseline in postprandial glucose (PPG) concentration AUC0-3” value is listed as “No statistically significant differences from placebo” and the “difference from placebo in change from Baseline in urinary glucose excretion from 0 to 24 hours (UGE0-24)” value is listed as “No statistically significant differences from placebo”. For the same molecule, at SGLT1 transporter (each LX2761 cohort except Cohort A2, at most assessment time points), the “PPG concentration AUC0-3 versus Baseline” value is recorded as “reduced from Baseline”. The “concentrations after the first dose (exposure)” value in data set [3] (after the first dose) is recorded as “mostly BLQ”. Besides, the “increase in exposure (AUC and Cmax)” value in data set [3] (ascending dose levels, moderate to high variability) is given as “generally dose-related”. Moreover, the absorption result in data set [3] (oral solution) is recorded as “rapid absorption”. The “subjects with BMs graded as BSF Scale Type 6 or 7” value in data set [4] (all LX2761 cohorts but Cohort B, on at least one day through Day 8) was no less than 50%. Further, the “increase in mean stool frequency per day from Baseline” value in data set [4] (all LX2761 cohorts, on at least one day through Day 8) is given as greater than 0.5 BM. Moreover, the “frequency of subjects with 2 or 3 BMs graded as BSF Scale Type 6 or 7 on a single day, versus placebo-treated subjects” value in data set [4] (all LX2761 cohorts, through Day 8) is given as “higher”. The “change in BMs meeting study criteria of moderate or severe diarrhea” value in data set [4] (human, in vivo) is given as “No change in BMs meeting these criteria of moderate or severe diarrhea was reported”. In addition, the systemic exposure entry in data set [5] is on record as “very low systemic exposure”.
